Measurements published in paper PMC4912613, “A broad analysis of resistance development in the malaria parasite” (Nature Communications, 2016).
Like-named read-outs stand apart in the source and are kept apart here.

What was measured:
[1] = system: ATQ-R5 (cytb F267V, parent 3D7); test: Cross-resistance EC50 assay, ATQ-R5; assay type: cell-based, Plasmodium falciparum; conditions: Plasmodium falciparum, 3D7; SYBR green 72 hour assay; asynchronized parasites; 96-well or 1536-well format; ATQ-R5
Text: (§1) To evaluate potential overlapping activity against known antimalarial drug targets, we performed dose-response studies with each compound against our assembled set of drug-resistant lines and their corresponding parents, in an asexual blood stage proliferation assay (Table 1). Comparisons were made to the drug-sensitive strain 3D7 when a parent was unavailable (TM90C2A, W2 and Dd2). As laboratories conducted EC50 assays with different strains and protocols, all comparisons were made between assays from the same laboratory and under the same assay conditions. Compounds displaying >5-fold EC50 shifts relative to the parent or sensitive strain were flagged as having potentially non-novel targets. Average fold shifts per strain ranged from 0.82 to 2.34, with a median of 1.23 indicating there was not common resistance to any one resistant clone. No resistance patterns were observed when classifying the compounds based on chemical structure, but this was not surprising given the diversity of compounds chosen. On the other hand, given that these confirmed compounds were derived from larger unconfirmed hit lists to which some filtration criteria may have been applied (for example, elimination of obvious dihydrofolate reductase inhibitors[32]), some[10][11][12][13] pre-existing bias may exist in the set. […]
(§2) Alternatively, a SYBR Green-based proliferation approach was used for the 72-h assay, as previously described. Briefly, a culture of either synchronized or asynchronous parasitized RBCs (0.3% parasitemia and 4% haematocrit) in screening medium (identical to supplemented medium above except no serum was added) was exposed to serial drug dilutions. Plates were incubated at 37 °C and gassed with 93% N2, 4% CO2 and 3% O2 for 72 h. Following incubation, 10 × SYBR Green I (Invitrogen; supplied in 10,000 × concentration) in lysis buffer ([…], 5 mM EDTA, 0.16% Saponin wt per vol and 1.6% Triton X vol per vol) was added to the wells and the plates were incubated overnight at room temperature before plate reading. EC50 assays were repeated three times, taking the average EC50 value from each assay set, and removing any outliers using a single iteration of Grubbs' test, eliminating values with z-scores above the critical z-value (α=0.05). The raw EC50 values for synchronized parasites assayed in a 384-well format are listed in Supplementary Data 4. The raw EC50 values for asynchronous parasites assayed in a 96 or 1536-well format are listed in Supplementary Data 5.
(§3) EC50 values for each strain were compared with those of the corresponding parent strain to determine fold-shift changes and identify resistance. To minimize the cause variance between assays, all comparisons were conducted between strains assayed under identical conditions. A one-way ANOVA followed by a Dunnet's post-test was conducted in GraphPad Prism to identify significant changes between the parent and resistant strain.

[2] = system: PfCRT-Q352R (parent Dd2); test: Cross-resistance EC50 assay, PfCRT-Q352R; assay type: cell-based; conditions: Plasmodium falciparum, DD2, 72 h, read-out: PfCRT:Q352R (Dd2 Parent) Average EC50
Text: as §1, §2, §3

[3] = system: CYTb-G131S (cytb G131S, parent Dd2); test: Cross-resistance EC50 assay, CYTb-G131S; assay type: cell-based, Plasmodium falciparum; conditions: Plasmodium falciparum; SYBR green 72 hour assay; synchronized parasites; 384-well format; strain CYTb:G131S (Dd2 parent)
Text: as §1, §2, §3

[4] = system: P. falciparum strain 3D7; test: Asexual blood stage 3H-hypoxanthine incorporation assay, 3D7; assay type: cell-based, Plasmodium falciparum; conditions: Plasmodium falciparum, 3D7, asexual stage, P. falciparum 3D7; read-out: 3D7 EC50
Experimental: The 48-h assay was carried out in a 96-well format following standard methods using the ^3H-hypoxanthine incorporation assay. The raw EC50 values corresponding to this assay can be found in Supplementary Data 3. Briefly, this assay relies on the parasite incorporation of labelled hypoxanthine that is proportional to P. falciparum growth. A culture of parasitized RBCs (0.5% parasitemia with a percentage of ring stage higher than 70% of total parasitemia, 2.0% haematocrit) in RPMI-1640, […] and 5 μM hypoxanthine was exposed to drug serial dilutions. Plates were incubated for 24 h at 37 °C, 5% CO2, 5% O2 and 90% N2. After 24 h of incubation, ^3H-hypoxanthine was added and plates were incubated for an additional 24-h period. After that, parasites were harvested on a glass fibre filter using a TOMTEC Cell Harvester 96. Filters were dried and melt-on scintillator sheets were used to determine the incorporation of ^3H-hypoxanthine. Radioactivity was measured using a microbeta counter. Data were normalized using the incorporation of the positive (parasitized RBCs without drug) and negative (same culture with artesunate at 2 μM) controls. All assays were conducted in triplicate using three independently grown cultures, and EC50 values were determined using the XLfit add-in module for Excel (version 2.3.1) from Grafit (version 5.3.1.3), where parameter h is the assay hill slope, x is the compound concentration and y is the inhibition of growth effect. The XLfit equation is: […]

[5] = system: DHODH (E182D, parent 3D7); test: Cross-resistance EC50 assay, DHODH; assay type: cell-based; conditions: Plasmodium falciparum; SYBR green 72 hour assay; synchronized parasites; 384-well format; strain DHODH (3D7 parent)
Text: as §1, §2, §3

[6] = system: Dd2; test: Cross-resistance EC50 assay, Dd2 parent; assay type: cell-based, Plasmodium falciparum; conditions: for EC50: Plasmodium falciparum, DD2, 72 h
Text: Multidrug resistance alleles, including mutations in P. falciparum chloroquine resistance transporter (pfcrt) and P. falciparum multi-drug resistance transporter 1 (pfmdr1) are very common in field isolates. Therefore, we sought to assess the degree to which pre-existing resistance alleles would contribute to a loss of potency for this diverse collection of small molecule compounds. Fifteen clones derived from three main parent lines were chosen to maximize diversity in mutated pathways and genetic backgrounds, thus representing the variety of resistance seen in the field: 3D7 (ref. [23]), W2 (ref. [24]) or Dd2 (ref. [25]). The 3D7 line originates from the clone of a Netherlands clinical isolate strain[23][26] and is generally considered to be drug sensitive, though it does convey resistance to sulfadoxine. Conversely, W2 (ref. [24], [27]) and Dd2 (ref. [25]) are multi-drug-resistant lines originating from the Indochina III/CDC isolate, which contain point mutations in pfcrt as well as amplifications in pfmdr1 and GTP cyclohydrolase.
as §1, §2, §3

[7] = system: CYTbQi (cytb G33A, parent Dd2); test: Cross-resistance EC50 assay, CYTbQi; assay type: cell-based; conditions: Plasmodium falciparum; SYBR green 72 hour assay; synchronized parasites; 384-well format; strain CYTbQi (Dd2 parent)
Text: as §1, §2, §3

[8] = read-out: Dd2 (PARENT) Average EC50
[9] = read-out: Dd2 (PARENT) EC50 (µM) Average EC50

| SMILES | EC50 [1] [µM] | EC50 [2] [nM] | EC50 [3] [nM] | EC50 [4] [nM] | EC50 [5] [nM] | EC50 [6, 8] [µM] | EC50 [6, 9] [µM] | EC50 [7] [nM] | EC50 fold-shift, Dd2 compared with 3D7, average ([6]; average) [×] |
| --- | --- | --- | --- | --- | --- | --- | --- | --- | --- |
| CC(NCc1ccccc1)c1cc(Cl)ccc1O (centres unmarked) [MMV665789] | 0.29 | 571 | 922 | 1250 | 728 | 0.482 | 0.333 | 674 | – |
| COc1ccc(-c2nc(NC(=O)Cc3ccc4c(c3)OCCO4)sc2C)cc1 [MMV019719] | 0.213 | 244 | 261 | 164 | 180 | 0.26 | 0.277 | 245 | – |
| CCC(C)NCC(O)(c1ccc(Cl)cc1)c1ccc(Cl)cc1 (centres unmarked) [MMV665928] | 0.074 | 486 | 669 | 494 | 878 | 0.427 | 0.331 | 492 | – |
| CC(C)c1cccc(C(NC(=O)C2Cc3ccccc3CN2C(=O)c2cccc(N3CCOCC3)c2)C2CCCC2)c1 (centres unmarked) [MMV028038] | 0.839 | 314 | 461 | 540 | 1270 | 0.299 | 0.622 | 339 | – |
| COc1cc(-c2nc(-c3ccccc3)c(-c3ccccc3)[nH]2)cc(OC)c1O [MMV020750] | 0.873 | 725 | 872 | 342 | 509 | 0.678 | 0.773 | 927 | – |
| COc1ccc(N2CCN(C(CNC(=O)C3CCCCC3)c3ccc4c(c3)OCO4)CC2)cc1 (centres unmarked) [MMV019662] | 0.596 | 356 | 583 | 340 | 860 | 0.357 | 0.242 | 448 | – |
| CC(C)(C)OC(=O)N1CCN(c2ccccc2NC(=O)c2cccc(C(F)(F)F)c2Oc2ccc(F)cc2)CC1 [MMV030666] | 0.251 | 315 | 389 | 486 | 392 | 0.374 | 0.255 | 352 | – |
| CCN(CC)S(=O)(=O)c1ccc(-c2csc(Nc3ccc(C)c(C)c3)n2)cc1 [MMV009108] | 2.35 | 404 | 494 | 930 | 973 | 0.368 | 0.929 | 416 | – |
| CNCc1ccc2nc(-c3coc(Cc4cc(Cl)ccc4OCC(C)C)n3)[nH]c2c1.Cl.Cl [MMV026596] | 0.376 | 451 | 443 | 346 | 392 | 0.347 | 0.158 | 431 | – |
| COc1ccc(C(=O)C2CC2c2ccc(Cl)cc2)cc1 (centres unmarked) [MMV665924] | 3.63 | 1400 | 1910 | 820 | 927 | 1.19 | 1.58 | 1130 | – |
| O=C(NC(c1ccccc1)c1ccc2cccnc2c1O)c1ccccc1 (centres unmarked) [MMV666080] | 0.756 | 545 | 401 | 845 | 779 | 0.426 | 0.886 | 1290 | – |
| Cc1nc2ccc3ccc(CNc4ccc(C(=O)CC(CCC(=O)O)C(=O)O)cc4)cc3c2c(=O)[nH]1.Cl (centres unmarked) [MMV027634] | 0.13 | 38 | 52 | 23 | 33 | 0.035 | 0.124 | 42 | – |
| Cc1ccc(Oc2ncccc2C(=O)Cc2cccc3cccnc23)c(C)c1 [MMV020746] | 1.49 | 142 | 327 | 76 | 122 | 0.241 | 1.86 | 268 | – |
| COc1cc(-c2nc(-c3ccccc3)c(-c3ccccc3)[nH]2)ccc1OCCN(C)C [MMV027496] | 0.302 | 211 | 322 | 111 | 128 | 0.304 | 0.74 | 317 | – |
| CCCOCc1cc(CN2CCN(c3cccc(Cl)c3)CC2)c(O)c2ncccc12 [MMV000787] | 1.43 | 699 | 632 | 942 | 467 | 0.588 | 1.59 | 520 | – |
| COC(=O)c1ccc(C2C3=C(O)CC(c4ccc(F)cc4)CC3=Nc3ccccc3N2C(=O)c2ccccc2)cc1 (centres unmarked) [MMV011438] | 0.34 | 174 | 336 | 431 | 556 | 0.152 | 0.655 | 235 | – |
| FC(F)(F)c1cccc(Nc2nc3ccccc3nc2Nc2cccc(C(F)(F)F)c2)c1 [MMV665794] | 0.381 | 116 | 172 | 100 | 187 | 0.113 | 0.199 | 128 | – |
| O=C(Nc1ccsc1C(=O)NC1CCCCC1)c1ccc(F)cc1 [MMV665939] | 3.43 | 1140 | 2090 | 1040 | 771 | 1.96 | 2.06 | 1610 | 2.4 |
| Brc1ccc(Nc2nc3ccccc3nc2Nc2ccc(Br)cc2)cc1 [MMV007224] | 0.719 | 287 | 285 | 222 | 606 | 0.274 | 0.714 | 327 | – |
| Nc1ncc(-c2cn[nH]c2)cc1-c1nc2ccc(F)cc2[nH]1 [MMV023367] | 1.53 | 421 | 710 | 302 | 414 | 0.654 | 1.96 | 626 | – |
